Data taken from ChEMBL document CHEMBL4420062, “Tfpi inhibitors and methods of use” (2013).
Where a SMILES comes first, the peptide text is derived from it. [ ]: non-standard residue; d: D form. Aib = CC(C)(N)C(=O)O

Target: T1, Tissue factor pathway inhibitor (Homo sapiens, UniProt P10646)
T1 sequence (P10646 whole entry): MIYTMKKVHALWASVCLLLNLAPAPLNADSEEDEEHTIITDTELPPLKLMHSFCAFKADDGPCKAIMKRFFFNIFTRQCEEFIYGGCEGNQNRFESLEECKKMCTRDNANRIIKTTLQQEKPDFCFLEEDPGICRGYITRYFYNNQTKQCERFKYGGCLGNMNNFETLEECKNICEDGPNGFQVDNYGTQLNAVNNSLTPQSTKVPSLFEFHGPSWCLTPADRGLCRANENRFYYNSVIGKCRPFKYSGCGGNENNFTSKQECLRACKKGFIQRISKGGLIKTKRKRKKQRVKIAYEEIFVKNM
Test: Binding affinity to TFPI (unknown origin) incubated for […] using tracer peptide JBT0131 by screening ELISA
Conditions: not given

Compound | IC50 [µM]
Ac-FQSKKNVFGFGYFERLRAKL-NH2 | > 5
Ac-FQSKKLVFVFGYFERLRAKL-NH2 | > 5
Ac-FQSLKNVFVFGYFERLRAKL-NH2 | > 1.67
Ac-FQSKKNVFVFGFFERLRAKL-NH2 | > 5
Ac-FQSKKNVFLFGYFERLRAKL-NH2 | > 5
Ac-FQSKKNVFVFGYFERFRAKL-NH2 | > 5
Ac-FQFKKNVFVFGYFERLRAKL-NH2 | > 5
Ac-FQSKKNVFVFGYFERLRFKL-NH2 | > 5
CCCCCCCCCCCCCC(=O)NCCCC[C@H](NC(=O)[C@@H](NC(=O)[C@H](Cc1cnc[nH]1)NC(=O)[C@@H](NC(=O)[C@H](CO)NC(=O)[C@H]1CCCN1C(=O)[C@H](CCCCN)NC(=O)[C@H](CO)NC(=O)[C@H](CCC(N)=O)NC(=O)[C@H](Cc1ccccc1)NC(=O)CCCCC)C(C)C)C(C)(C)C)C(=O)N[C@H](C)C(=O)N[C@@H](Cc1ccc(O)cc1)C(=O)N[C@@H](Cc1ccccc1)C(=O)N[C@@H](CCC(=O)O)C(=O)N[C@@H](CCCNC(=N)N)C(=O)N[C@@H](CC(C)C)C(=O)NC(C)(C)C(=O)N[C@@H](C)C(=O)N[C@@H](CCCCN)C(=O)N[C@@H](CC(C)C)C(N)=O | > 0.5
CC(=O)N[C@@H](Cc1ccccc1)C(=O)N[C@@H](CCC(N)=O)C(=O)N[C@@H](CO)C(=O)N[C@@H](CCCCN)C(=O)NCC(=O)N[C@@H](CC(N)=O)C(=O)N[C@H](C(=O)N[C@@H](Cc1ccccc1)C(=O)N[C@H](C(=O)N[C@@H](CC(=O)O)C(=O)NCC(=O)N[C@@H](Cc1ccc(O)cc1)C(=O)N[C@@H](Cc1ccccc1)C(=O)N[C@@H](CCC(=O)O)C(=O)N[C@@H](CCCNC(=N)N)C(=O)N[C@@H](CC(C)C)C(=O)NC(C)(C)C(=O)N[C@@H](C)C(=O)NC(C)(C)C(=O)N[C@@H](CC(C)C)C(N)=O)C(C)C)C(C)C (Ac-FQSKGNVFVDGYFERL[Aib]A[Aib]L-NH2) | > 5
Ac-FQSKKNVFVFGYFEFLRAKL-NH2 | > 5
Ac-FFSKKNVFVFGYFERLRAKL-NH2 | > 5
CCCCCCCCCCCCCC(=O)NCCCC[C@H](NC(=O)[C@H]1CCCN1C(=O)[C@H](CCCCN)NC(=O)[C@H](CO)NC(=O)[C@H](CCC(N)=O)NC(=O)[C@H](Cc1ccccc1)NC(=O)CCCCC)C(=O)N[C@H](C(=O)N[C@@H](Cc1cnc[nH]1)C(=O)N[C@H](C(=O)N[C@@H](CC(=O)O)C(=O)N[C@H](C)C(=O)N[C@@H](Cc1ccc(O)cc1)C(=O)N[C@@H](Cc1ccccc1)C(=O)N[C@@H](CCC(=O)O)C(=O)N[C@@H](CCCNC(=N)N)C(=O)N[C@@H](CC(C)C)C(=O)NC(C)(C)C(=O)N[C@@H](C)C(=O)N[C@@H](CCCCN)C(=O)N[C@@H](CC(C)C)C(N)=O)C(C)(C)C)C(C)C | > 0.5
Ac-FQSKLNVFVFGYFERLRAKL-NH2 | > 1.67
Ac-FQSKKNDFVFGYFERLRAKL-NH2 | > 5
CCCCCCCCCCCCCC(=O)NCCCC[C@H](NC(=O)[C@H](CO)NC(=O)[C@H](CCC(N)=O)NC(=O)[C@H](Cc1ccccc1)NC(=O)CCCCC)C(=O)N1CCC[C@@H]1C(=O)N[C@@H](CO)C(=O)N[C@H](C(=O)N[C@@H](Cc1cnc[nH]1)C(=O)N[C@H](C(=O)N[C@@H](CC(=O)O)C(=O)N[C@H](C)C(=O)N[C@@H](Cc1ccc(O)cc1)C(=O)N[C@@H](Cc1ccccc1)C(=O)N[C@@H](CCC(=O)O)C(=O)N[C@@H](CCCNC(=N)N)C(=O)N[C@@H](CC(C)C)C(=O)NC(C)(C)C(=O)N[C@@H](C)C(=O)N[C@@H](CCCCN)C(=O)N[C@@H](CC(C)C)C(N)=O)C(C)(C)C)C(C)C | > 0.5
Ac-FQSKKNVFVFGYFERDRAKL-NH2 | > 5

Compound | IC50 [µM]
Ac-FQLKKNVFVFGYFERLRAKL-NH2 | > 5
Ac-FQSKKNVFVFGYFERLFAKL-NH2 | > 5
Ac-FQSKGNVFVDGYFERLRMKL-NH2 | < 0.05
Ac-FLSKKNVFVFGYFERLRAKL-NH2 | 1 to 5
Ac-FQSKKNVFVFGLFERLRAKL-NH2 | > 5
Ac-FQSKKNYDVFGYFERLRAKL-NH2 | > 5
Ac-FQSKGNVFVDGYFERLRRKL-NH2 | < 0.05
Ac-FQSKKNVFVFLYFERLRAKL-NH2 | > 5
Ac-FQSKKNVFVFFYFERLRAKL-NH2 | > 1.67
Ac-FQSFKNVFVFGYFERLRAKL-NH2 | > 5
Ac-FQSKKNVFVFGYFERLDAKL-NH2 | > 5
CC(=O)N[C@@H](Cc1ccccc1)C(=O)N[C@@H](CCC(N)=O)C(=O)N[C@@H](CO)C(=O)N[C@@H](CCCCN)C(=O)NCC(=O)N[C@@H](CC(N)=O)C(=O)N[C@H](C(=O)NC(C)(C)C(=O)N[C@H](C(=O)N[C@@H](CC(=O)O)C(=O)NCC(=O)N[C@@H](Cc1ccc(O)cc1)C(=O)N[C@@H](Cc1ccccc1)C(=O)N[C@@H](CCC(=O)O)C(=O)N[C@@H](CCCNC(=N)N)C(=O)N[C@@H](CC(C)C)C(=O)NC(C)(C)C(=O)N[C@@H](C)C(=O)N[C@@H](CCCCN)C(=O)N[C@@H](CC(C)C)C(N)=O)C(C)C)C(C)C (Ac-FQSKGNV[Aib]VDGYFERL[Aib]AKL-NH2) | > 5
Ac-FQSDKNVFVFGYFERLRAKL-NH2 | > 5
Ac-FDSKKNVFVFGYFERLRAKL-NH2 | > 1.67
Ac-FQSKKNVFVFGDFERLRAKL-NH2 | > 5
Ac-FQSKKNVFDFGYFERLRAKL-NH2 | > 5

Test system: not listed separately
Test: Stability in human plasma assessed as parent compound remaining after 24 hrs
Format: ADME, cell-free
Conditions: read-out: Stability

Compound | remaining at 24 h [%]
CC(C)C[C@H](NC(=O)[C@H](CCCCN)NC(=O)[C@H](C)NC(=O)C(C)(C)NC(=O)[C@H](CC(C)C)NC(=O)[C@H](CCCNC(=N)N)NC(=O)[C@H](CCC(=O)O)NC(=O)[C@H](Cc1ccccc1)NC(=O)[C@H](Cc1ccc(O)cc1)NC(=O)[C@@H](C)NC(=O)[C@H](CC(=O)O)NC(=O)[C@@H](NC(=O)[C@H](Cc1cnc[nH]1)NC(=O)[C@@H](NC(=O)[C@H](CC(N)=O)NC(=O)[C@H]1CCCN1C(=O)[C@H](CCCCN)NC(=O)[C@H](CO)NC(=O)[C@H](CCC(N)=O)NC(=O)[C@H](Cc1ccccc1)NS(=O)(=O)c1ccc2ccccc2c1)C(C)C)C(C)(C)C)C(N)=O | 105
CC(=O)N[C@@H](Cc1ccccc1)C(=O)N[C@@H](CCC(N)=O)C(=O)N[C@@H](CO)C(=O)N[C@@H](CCCCN)C(=O)N1CCC[C@@H]1C(=O)N[C@@H](CC(N)=O)C(=O)N[C@H](C(=O)N[C@@H](Cc1cnc[nH]1)C(=O)N[C@H](C(=O)N[C@@H](CC(=O)O)C(=O)N[C@@H]1CSSC[C@@H](C(=O)N[C@@H](CCCNC(=N)N)C(=O)N[C@@H](CC(C)C)C(=O)N[C@@H](C)C(=O)N[C@@H](C)C(=O)N[C@@H](CCCCN)C(=O)N[C@@H](CC(C)C)C(N)=O)NC(=O)[C@H](Cc2ccccc2)NC(=O)[C@H](Cc2ccc(O)cc2)NC1=O)C(C)(C)C)C(C)C | 49.3
CCN1C(=O)CC(SC[C@H](NC(=O)[C@H](CC(C)C)NC(=O)[C@H](CCCCN)NC(=O)[C@H](C)NC(=O)C(C)(C)NC(=O)[C@H](CC(C)C)NC(=O)[C@H](CCCNC(=N)N)NC(=O)[C@H](CCC(=O)O)NC(=O)[C@H](Cc2ccccc2)NC(=O)[C@H](Cc2ccc(O)cc2)NC(=O)CNC(=O)[C@H](CC(=O)O)N(C)C(=O)[C@@H](NC(=O)[C@H](Cc2cnc[nH]2)NC(=O)[C@@H](NC(=O)[C@H](CC(N)=O)NC(=O)[C@H]2CCCN2C(=O)[C@H](CCCCN)NC(=O)[C@H](CO)NC(=O)[C@H](CCC(N)=O)NC(=O)[C@H](Cc2ccccc2)NC(C)=O)C(C)C)C(C)C)C(N)=O)C1=O (stereo not given in full) | 46.5
CCN1C(=O)CC(SC[C@H](NC(=O)[C@H](CC(C)C)NC(=O)[C@H](CCCCN)NC(=O)[C@H](C)NC(=O)C(C)(C)NC(=O)[C@H](CC(C)C)NC(=O)[C@H](CCCNC(=N)N)NC(=O)[C@H](CCC(=O)O)NC(=O)[C@H](Cc2ccccc2)NC(=O)[C@H](Cc2ccc(O)cc2)NC(=O)[C@H](C)NC(=O)[C@H](CC(=O)O)NC(=O)[C@@H](NC(=O)[C@H](Cc2cnc[nH]2)NC(=O)[C@@H](NC(=O)[C@H](CC(N)=O)NC(=O)[C@H]2CCCN2C(=O)[C@H](CCCCN)NC(=O)[C@H](CO)NC(=O)[C@H](CCC(N)=O)NC(=O)[C@H](Cc2ccccc2)NC(C)=O)C(C)C)C(C)C)C(N)=O)C1=O (stereo not given in full) | 17.9
CC(=O)N[C@@H](Cc1ccccc1)C(=O)N[C@@H](CCC(N)=O)C(=O)N[C@@H](CO)C(=O)N[C@@H](CCCCN)C(=O)N(CC(=O)N[C@@H](CC(N)=O)C(=O)N[C@H](C(=O)N[C@@H](Cc1cnc[nH]1)C(=O)N[C@H](C(=O)N[C@@H](CC(=O)O)C(=O)NCC(=O)N[C@@H](Cc1ccc(O)cc1)C(=O)N[C@@H](Cc1ccccc1)C(=O)N[C@@H](CCC(=O)O)C(=O)N[C@@H](CCCNC(=N)N)C(=O)N[C@@H](CC(C)C)C(=O)NC(C)(C)C(=O)N[C@@H](C)C(=O)N[C@@H](CCCCN)C(=O)N[C@@H](CC(C)C)C(N)=O)C(C)C)C(C)C)C1CCCCC1 | 17.4
CCN1C(=O)CC(SC[C@H](NC(=O)[C@H](CC(C)C)NC(=O)[C@H](CCCCN)NC(=O)[C@H](C)NC(=O)C(C)(C)NC(=O)[C@H](CC(C)C)NC(=O)[C@H](CCCNC(=N)N)NC(=O)[C@H](CCC(=O)O)NC(=O)[C@H](Cc2ccccc2)NC(=O)[C@H](Cc2ccc(O)cc2)NC(=O)CNC(=O)[C@@H]2CCCN2C(=O)[C@@H](NC(=O)[C@H](Cc2cnc[nH]2)NC(=O)[C@@H](NC(=O)[C@H](CC(N)=O)NC(=O)[C@H]2CCCN2C(=O)[C@H](CCCCN)NC(=O)[C@H](CO)NC(=O)[C@H](CCC(N)=O)NC(=O)[C@H](Cc2ccccc2)NC(C)=O)C(C)C)C(C)C)C(N)=O)C1=O (stereo not given in full) | 58
CCN1C(=O)CC(SC[C@H](NC(=O)[C@H](CC(C)C)NC(=O)[C@H](CCCCN)NC(=O)[C@H](C)NC(=O)C(C)(C)NC(=O)[C@H](CC(C)C)NC(=O)[C@H](CCCNC(=N)N)NC(=O)[C@H](CCC(=O)O)NC(=O)[C@H](Cc2ccccc2)NC(=O)[C@H](Cc2ccc(O)cc2)NC(=O)CNC(=O)[C@H](CC(=O)O)NC(=O)[C@@H](NC(=O)[C@H](Cc2cnc[nH]2)NC(=O)[C@@H](NC(=O)[C@H](CC(N)=O)NC(=O)[C@H]2CCCN2C(=O)[C@H](CCCCN)NC(=O)[C@H](CO)NC(=O)[C@H](CCC(N)=O)NC(=O)[C@H](Cc2ccccc2)NC(C)=O)C(C)C)C(C)(C)C)C(N)=O)C1=O (stereo not given in full) | 52
